Experimental findings from patent publication US20120302609A1, “Pyrazolines for the Modulation of PKM2” (Dynamix Pharmaceuticals LTD., priority 2011, published 2012) are described below.

In this assay the test system is HT-29 (colon). Description: Cell proliferation assay (XTT or CellTiter-Glo). Type of assay: cell-based. Conditions: Homo sapiens. How it is done:
Day 0 Cells were seeded at 3000 cells/well in 100 μl full media in 96-well culture plates (60 wells/plate, external wells filled with 100 μl PBS) and incubated overnight. • Day 1 On the following day, full media was changed to the tested media and compounds were added in 0.5% DMSO final. • Day 2-5 Cells were incubated over 72 hr. • Day 5 Cell proliferation was assessed using XTT proliferation assay as follows:
The assay is based on the ability of metabolic active cells to reduce the tetrazolium salt XTT to orange colored compounds of formazan. The dye formed is water soluble and the dye intensity can be read at a given wavelength with a spectrophotometer. […] The use of multiwell plates and an ELISA reader enables testing a large number of samples and obtaining easy and rapid results. […] During incubation an orange color is formed, the intensity of which can be measured with a spectrophotometer, in this instance with an ELISA reader. The greater the number of active cells in the well, the greater the activity of mitochondria enzymes, and the higher the concentration of the dye formed, which can then be measured and quantitated.
• 1. […] The absorbance of the samples was measured against a background control as a blank (see 7) with a spectrophotometer (ELISA reader) at a wavelength of 450-500 nanometer. […] The average absorbance of the blank control wells was subtracted from that of the other wells. […]

`COc1ccc([C@@H]2CC(c3ccc(NS(=O)(=O)c4ccc(F)cc4)cc3)=NN2C(C)=O)cc1` [Compound 13A, (S)—N-(4-(1-acetyl-5-(4-methoxyphenyl)-4,5-dihydro-1H-pyrazol-3-yl)phenyl)-4-fluorobenzenesulfonamide] registered an AC50 (1 mM glucose, Assay duration: 72 hours, Readout: XTT) of 3 to 10 µM and a concentration at half-maximal activity (AC50) (Complete media, 96 hr, CellTiter-Glo) of 10 to 20 µM.
